In patent US20220380319A1 (Bial - R&D Investments, S.A., priority 2019, published 2022):
In brackets after ≈: the same amount, converted by molar mass.

What was measured:
acid ceramidase = biological target: T1, acid ceramidase (Homo sapiens, UniProt Q13510); assay: Acid ceramidase inhibition, biochemical fluorescent assay with cell lysates overexpressing acid ceramidase, substrate Rbm14-12; settings: substrate Rbm14-12 6.3 μM
T1 construct: Cell lysates overexpressing acid ceramidase were used as the enzyme source; expressed in transfected cells
T1 sequence (Q13510 22-395): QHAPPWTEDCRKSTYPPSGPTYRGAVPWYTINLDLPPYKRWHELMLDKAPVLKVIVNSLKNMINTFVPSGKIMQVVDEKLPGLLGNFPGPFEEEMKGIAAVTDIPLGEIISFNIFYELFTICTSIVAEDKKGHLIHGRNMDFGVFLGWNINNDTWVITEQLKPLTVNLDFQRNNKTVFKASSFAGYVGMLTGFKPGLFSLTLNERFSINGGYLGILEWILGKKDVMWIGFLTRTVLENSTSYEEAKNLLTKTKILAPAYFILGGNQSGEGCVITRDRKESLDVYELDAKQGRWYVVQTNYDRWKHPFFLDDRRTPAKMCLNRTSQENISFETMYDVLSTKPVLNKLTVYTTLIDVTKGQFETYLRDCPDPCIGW
Description: The ability of exemplary compounds to inhibit acid ceramidase was measured.
Cell lysates overexpressing acid ceramidase were used as the enzyme source for compound potency determination in a biochemical fluorescent assay. Briefly, compounds were preincubated with 10 μg protein of cell lysates in a dose-response manner for 1 hr at RT in the assay buffer containing 25 mM NaAC and 100 mM NaCl, pH 4.5. The reaction was initiated by the addition of substrate Rbm14-12 at a final concentration of 6.3 μM. The reaction was run at RT for 1 hr before it was stopped by the addition of the stopping buffer containing 20% methanol (v/v), 1 mg/ml NaIO4, 0.1 M glycine, pH 10.6. The samples were incubated with the stopping buffer at RT for 1 hr to allow the fluorescent product to be formed. Finally, the plate was read with SpectraMax i3 plate reader (Molecular Devices) at ex360 nm and em446 nm. Data were collected and used to determine the IC50 values of compounds by curve fitting to the four-parameter inhibition equation.

[1] = Compound solubility in water
[2] = pH 4.5, 1 hr preincubation at RT

| SMILES | IC50 (acid ceramidase; pH 4.5) [nM] | solubility [1] [µg/mL] | IC50 (acid ceramidase; [2]) [nM] |
| --- | --- | --- | --- |
| CC(C)CCNC(=O)n1cnc2c(N3C[C@H](C)O[C@@H](C)C3)cccc21 (stereo in doubt) [Example 168, 4-((2S,6S)-2,6-Dimethylmorpholino)-N-iso-pentyl-1H-benzo[d]imidazole-1-carboxamide] | 200 to 1000 | 11 (≈ 31.9 µM) |  |
| COc1nc2ccc(N3CCOCC3)cc2n1C(=O)NCCc1ccccc1 [28 & 29a] |  | 18 (≈ 47.3 µM) | 200 to 1000 |
| O=C(NCCc1ccccc1)n1cnc2ccccc21 [Example 1, N-Phenethyl-1H-benzo[d]imidazole-1-carboxamide] |  | 8 (≈ 30.2 µM) | < 200 |
| Cc1nc2ccccc2n1C(=O)NCCc1ccccc1 [Example 2, 2-Methyl-N-phenethyl-1H-benzo[d]imidazole-1-carboxamide] |  |  | < 200 |
| COc1nc2ccccc2n1C(=O)NCCc1ccccc1 [Example 3, 2-Methoxy-N-phenethyl-1H-benzo[d]imidazole-1-carboxamide] |  | 10 (≈ 33.9 µM) | < 200 |
| CN1CCC(c2ccc3c(c2)ncn3C(=O)NCCc2ccccc2)CC1 [Example 4, 5-(1-Methylpiperidin-4-yl)-N-phenethyl-1H-bezo[d]imidazole-1-carboxamide] |  | 20.6 (≈ 56.8 µM) | < 200 |
| O=C(NCCCc1ccccc1)n1cnc2ccccc21 [Example 5, N-(3-Phenylpropyl)-1H-benzo[d]imidazole-1-carboxamide] |  | 13.8 (≈ 49.4 µM) | < 200 |
| O=C(NCCCCc1ccccc1)n1cnc2ccccc21 [Example 6, N-(4-Phenylbutyl)-1H-benzo[d]imidazole-1-carboxamide] |  | 1 (≈ 3.41 µM) | < 200 |
| O=C(NCCc1ccccc1)n1cnc2cc(-c3ccccn3)c(Cl)cc21 [Example 7a, 6-Chloro-N-phenethyl-5-(pyridin-2-yl)-1H-benzo[d]imidazole-1-carboxamide] |  | 0.4 (≈ 1.06 µM) | < 200 |
| O=C(NCCc1ccccc1)n1cnc2cc(Cl)c(-c3ccccn3)cc21 [Example 7b, 5-chloro-N-phenethyl-6-(pyridin-2-yl)-1H-benzo[d]imidazole-1-carboxamide] |  | 0.1 (≈ 0.265 µM) | < 200 |
| O=C(NCCc1ccccc1)n1cnc2cc(-c3cncnc3)ccc21 [Example 8a, N-Phenethyl-5-(pyrimidin-5-yl)-1H-benzo[d]imidazole-1-carboxamide] |  | 3.7 (≈ 10.8 µM) | < 200 |
| O=C(NCCc1ccccc1)n1cnc2ccc(-c3cncnc3)cc21 [Example 8b, N-phenethyl-6-(pyrimidin-5-yl)-1H-benzo[d]imidazole-1-carboxamide] |  | 14.5 (≈ 42.2 µM) | < 200 |
| O=C(NCCc1ccccc1)n1cnc2cc(-c3ncccn3)ccc21 [Example 9, N-Phenethyl-5-(pyrimidin-2-yl)-1H-benzo[d]imidazole-1-carboxamide] |  | 5.4 (≈ 15.7 µM) | < 200 |
| O=C(NCCc1ccccc1)n1cnc2cc(-c3cccnc3)ccc21 [Example 10a, N-Phenethyl-5-(pyridin-3-yl)-1H-benzo[d]imidazole-1-carboxamide] |  | 1.2 (≈ 3.5 µM) | < 200 |
| O=C(NCCc1ccccc1)n1cnc2ccc(-c3cccnc3)cc21 [Example 10b, N-phenethyl-6-(pyridin-3-yl)-1H-benzo[d]imidazole-1-carboxamide] |  | 0.6 (≈ 1.75 µM) | < 200 |
| CN1CCC(c2cc3c(cc2Cl)ncn3C(=O)NCCc2ccccc2)CC1 [Example 11a, 5-Chloro-6-(1-methylpiperidin-4-yl)-N-phenethyl-1H-benzo[d]imidazole-1-carboxamide] |  | 23.1 (≈ 58.2 µM) | < 200 |
| CN1CCC(c2cc3ncn(C(=O)NCCc4ccccc4)c3cc2Cl)CC1 [Example 11b, 6-Chloro-5-(1-methylpiperidin-4-yl)-N-phenethyl-1H-benzo[d]imidazole-1-carboxamide] |  | 23.1 (≈ 58.2 µM) | < 200 |
| CN1CCC(c2cccc3c2ncn3C(=O)NCCc2ccccc2)CC1 [Example 12, 4-(1-Methylpiperidin-4-yl)-N-phenethyl-1H-benzo[d]imidazole-1-carboxamide] |  | 30.5 (≈ 84.1 µM) | < 200 |
| O=C(NCCc1ccccc1)n1cnc2cc(N3CCCCC3)ccc21 [Example 13a, N-Phenethyl-5-(piperidin-1-yl)-1H-benzo[d]imidazole-1-carboxamide] |  | 2.6 (≈ 7.46 µM) | < 200 |
| O=C(NCCc1ccccc1)n1cnc2ccc(N3CCCCC3)cc21 [Example 13b, N-Phenethyl-6-(piperidin-1-yl)-1H-benzo[d]imidazole-1-carboxamide] |  | 9.1 (≈ 26.1 µM) | < 200 |

| SMILES | IC50 (acid ceramidase; pH 4.5) [nM] | solubility [1] [µg/mL] | IC50 (acid ceramidase; [2]) [nM] |
| --- | --- | --- | --- |
| O=C(NCCc1ccccc1)n1cnc2cc(N3CCOCC3)ccc21 [Example 14a, 5-Morpholino-N-phenethyl-1H-benzo[d]imidazole-1-carboxamide] |  | 16.1 (≈ 45.9 µM) | < 200 |
| O=C(NCCc1ccccc1)n1cnc2ccc(N3CCOCC3)cc21 [Example 14b, 6-Morpholino-N-phenethyl-1H-benzo[d]imidazole-1-carboxamide] |  | 31.2 (≈ 89 µM) | < 200 |
| CN1CCN(c2ccc3c(c2)ncn3C(=O)NCCc2ccccc2)CC1 [Example 15a, 5-(4-Methylpiperazin-1-yl)-N-phenethyl-1H-benzo[d]imidazole-1-carboxamide] |  | 20.4 (≈ 56.1 µM) | < 200 |
| CN1CCN(c2ccc3ncn(C(=O)NCCc4ccccc4)c3c2)CC1 [Example 15b, 6-(4-Methylpiperazin-1-yl)-N-phenethyl-1H-benzo[d]imidazole-1-carboxamide] |  | 22.9 (≈ 63 µM) | < 200 |
| CC(C)CNC(=O)n1cnc2cc(-c3cncnc3)ccc21 [Example 16a, N-iso-Butyl-5-(pyrimidin-5-yl)-1H-benzo[d]imidazole-1-carboxamide] |  | 4.2 (≈ 14.2 µM) | < 200 |
| CC(C)CNC(=O)n1cnc2ccc(-c3cncnc3)cc21 [Example 16b, N-iso-Butyl-6-(pyrimidin-5-yl)-1H-benzo[d]imidazole-1-carboxamide] |  | 18.3 (≈ 62 µM) | < 200 |
| O=C(NCc1ccccc1)n1cnc2ccccc21 [Example 17, N-Benzyl-1H-benzo[d]imidazole-1-carboxamide] |  | 1.9 (≈ 7.56 µM) | < 200 |
| O=C(NCCOc1ccccc1)n1cnc2ccccc21 [Example 18, N-(2-Phenoxyethyl)-1H-benzo[d]imidazole-1-carboxamide] |  | 2 (≈ 7.11 µM) | < 200 |
| O=C(NCCc1ccccc1)n1cnc2ncccc21 [Example 19a, N-Phenethyl-1H-imidazo[4,5-b]pyridine-1-carboxamide] |  | 26.1 (≈ 98 µM) | < 200 |
| O=C(NCCc1ccccc1)n1cnc2cccnc21 [Example 19b, N-phenethyl-3H-imidazo[4,5-b]pyridine-3-carboxamide] |  | 24.5 (≈ 92 µM) | < 200 |
| O=C(NCCc1ccccc1)n1cnc2cnccc21 [Example 20, N-Phenethyl-1H-imidazo[4,5-c]pyridine-1-carboxamide] |  | 5.3 (≈ 19.9 µM) | < 200 |
| O=C(NCCc1ccccc1)n1cnc2ccncc21 [Example 21, N-Phenethyl-3H-imidazo[4,5-c]pyridine-3-carboxamide] |  | 4.3 (≈ 16.1 µM) | < 200 |
| O=C(NCCc1cccnc1)n1cnc2ccccc21 [Example 22, N-(2-(Pyridin-3-yl)ethyl)-1H-benzo[d]imidazole-1-carboxamide] |  | 12.9 (≈ 48.4 µM) | 200 to 1000 |
| CCCCCNC(=O)n1cnc2ccccc21 [Example 23, N-Pentyl-1H-benzo[d]imidazole-1-carboxamide] |  | 13.3 (≈ 57.5 µM) | < 200 |
| CCCCNC(=O)n1cnc2ccccc21 [Example 24, N-Butyl-1H-benzo[d]imidazole-1-carboxamide] |  | 21.9 (≈ 101 µM) | < 200 |
| COCCNC(=O)n1c(OC)nc2ncccc21 [Example 95, 2-Methoxy-N-(2-methoxyethyl)-1H-imidazo[4,5-b]pyridine-1-carboxamide] |  |  | 200 to 1000 |
| CC(C)CCNC(=O)n1cnc2c(N3CCN(C)CC3)cc(Cl)cc21 [Example 112, 6-Chloro-N-iso-pentyl-4-(4-methylpiperazin-1-yl)-1H-benzo[d]imidazole-1-carboxamide] |  | 27.5 (≈ 75.6 µM) |  |
| CCOc1nc2cccnc2n1C(=O)NCCC(C)C [Example 113, 2-Ethoxy-N-iso-pentyl-3H-imidazo[4,5-b]pyridine-3-carboxamide] |  |  | < 200 |
| COc1nc2ncccc2n1C(=O)NCCCOc1ccccc1 [Example 129, 2-Methoxy-N-(3-phenoxypropyl)-1H-imidazo[4,5-h]pyridine-1-carboxamide] |  |  | < 200 |
| Cn1c(=O)n(C(=O)NCCCCn2ccc(C(C)(C)C)n2)c2ncccc21 [Example 135b, N-(4-(3-(tert-butyl)-1H-pyrazol-1-yl)butyl)-1-methyl-2-oxo-1,2-dihydro-3H-imidazo[4,5-b]pyridine-3-carboxamide] |  | 23 (≈ 62.1 µM) |  |
